{"source": "PubChem BioAssay (NCI)", "assay_in_all_cases": "NCI tumour cell line growth inhibition, 48 h", "key": {"[1]": {"test_system": "HCC-2998 colon"}, "[2]": {"test_system": "SF-539 CNS"}, "[3]": {"test_system": "SF-295 CNS"}, "[4]": {"test_system": "IGROV1 ovarian"}, "[5]": {"test_system": "NCI-H460 lung"}, "[6]": {"test_system": "CAKI-1 renal"}, "[7]": {"test_system": "LOX IMVI melanoma"}, "[8]": {"test_system": "SK-OV-3 ovarian"}, "[9]": {"test_system": "MDA-MB-435"}, "[10]": {"test_system": "SR leukemia"}, "[11]": {"test_system": "UACC-62 melanoma"}, "[12]": {"test_system": "HL-60(TB) leukemia"}, "[13]": {"test_system": "HCT-15 colon"}, "[14]": {"test_system": "NCI-H522 lung"}, "[15]": {"test_system": "CCRF-CEM leukemia"}, "[16]": {"test_system": "MCF7 breast"}, "[17]": {"test_system": "OVCAR-5 ovarian"}, "[18]": {"test_system": "RPMI-8226 leukemia"}, "[19]": {"test_system": "NCI-H226 lung"}, "[20]": {"test_system": "K-562 leukemia"}, "[21]": {"test_system": "COLO 205 colon"}, "[22]": {"test_system": "EKVX NSCLC"}, "[23]": {"test_system": "UACC-257 melanoma"}, "[24]": {"test_system": "MOLT-4 leukemia"}, "[25]": {"test_system": "MALME-3M melanoma"}, "[26]": {"test_system": "A498 renal"}, "[27]": {"test_system": "DU-145 prostate"}, "[28]": {"test_system": "ACHN renal"}, "[29]": {"test_system": "OVCAR-3 ovarian"}, "[30]": {"test_system": "NCI-H23 lung"}, "[31]": {"test_system": "OVCAR-8 ovarian"}, "[32]": {"test_system": "HOP-92 NSCLC"}, "[33]": {"test_system": "SK-MEL-5 melanoma"}, "[34]": {"test_system": "HS 578T breast"}, "[35]": {"test_system": "NCI/ADR-RES ovarian"}, "[36]": {"test_system": "SNB-75 CNS"}, "[37]": {"test_system": "TK-10 renal"}, "[38]": {"test_system": "SK-MEL-28 melanoma"}, "[39]": {"test_system": "RXF 393 renal"}, "[40]": {"test_system": "BT-549 breast"}, "[41]": {"test_system": "HOP-62 NSCLC"}, "[42]": {"test_system": "SW-620 colon"}, "[43]": {"test_system": "OVCAR-4 ovarian"}, "[44]": {"test_system": "KM12 colon"}, "[45]": {"test_system": "M14 melanoma"}, "[46]": {"test_system": "SK-MEL-2 melanoma"}, "[47]": {"test_system": "A549 NSCLC"}, "[48]": {"test_system": "T-47D breast"}, "[49]": {"test_system": "786-0 renal"}, "[50]": {"test_system": "SF-268 CNS"}, "[51]": {"test_system": "U251 CNS"}}, "note": "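Results reflect a 48-hour exposure of cells in 96-well plates to compound at five concentrations. The concentration for full growth arrest is given as TGI.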", "data": [{"smiles": "O=c1c(-c2ccccc2)c(SCCN2CCCCCC2)n(-c2ccccc2)c(=S)n1-c1ccccc1", "values": [{"measurement": "TGI", "setting": "[1]", "value": 12.9, "unit": "µM"}, {"measurement": "TGI", "setting": "[2]", "value": "> 100", "unit": "µM"}, {"measurement": "TGI", "setting": "[3]", "value": "> 100", "unit": "µM"}, {"measurement": "TGI", "setting": "[4]", "value": "> 100", "unit": "µM"}, {"measurement": "TGI", "setting": "[5]", "value": "> 100", "unit": "µM"}, {"measurement": "TGI", "setting": "[6]", "value": 99.1, "unit": "µM"}, {"measurement": "TGI", "setting": "[7]", "value": "> 100", "unit": "µM"}, {"measurement": "TGI", "setting": "[8]", "value": "> 100", "unit": "µM"}, {"measurement": "TGI", "setting": "[9]", "value": "> 100", "unit": "µM"}, {"measurement": "TGI", "setting": "[10]", "value": 84.5, "unit": "µM"}, {"measurement": "TGI", "setting": "[11]", "value": "> 100", "unit": "µM"}, {"measurement": "TGI", "setting": "[12]", "value": 46.9, "unit": "µM"}, {"measurement": "TGI", "setting": "[13]", "value": "> 100", "unit": "µM"}, {"measurement": "TGI", "setting": "[14]", "value": "> 100", "unit": "µM"}, {"measurement": "TGI", "setting": "[15]", "value": 29.4, "unit": "µM"}, {"measurement": "TGI", "setting": "[16]", "value": "> 100", "unit": "µM"}, {"measurement": "TGI", "setting": "[17]", "value": 44.3, "unit": "µM"}, {"measurement": "TGI", "setting": "[18]", "value": "> 100", "unit": "µM"}, {"measurement": "TGI", "setting": "[19]", "value": "> 100", "unit": "µM"}, {"measurement": "TGI", "setting": "[20]", "value": 93.9, "unit": "µM"}, {"measurement": "TGI", "setting": "[21]", "value": "> 100", "unit": "µM"}, {"measurement": "TGI", "setting": "[22]", "value": 35.7, "unit": "µM"}, {"measurement": "TGI", "setting": "[23]", "value": "> 100", "unit": "µM"}, {"measurement": "TGI", "setting": "[24]", "value": 57.5, "unit": "µM"}, {"measurement": "TGI", "setting": "[25]", "value": 49.3, "unit": "µM"}, {"measurement": "TGI", "setting": "[26]", "value": 56.7, "unit": "µM"}, {"measurement": "TGI", "setting": "[27]", "value": 66.1, "unit": "µM"}, {"measurement": "TGI", "setting": "[28]", "value": "> 100", "unit": "µM"}, {"measurement": "TGI", "setting": "[29]", "value": "> 100", "unit": "µM"}, {"measurement": "TGI", "setting": "[30]", "value": "> 100", "unit": "µM"}, {"measurement": "TGI", "setting": "[31]", "value": "> 100", "unit": "µM"}, {"measurement": "TGI", "setting": "[32]", "value": "> 100", "unit": "µM"}, {"measurement": "TGI", "setting": "[33]", "value": "> 100", "unit": "µM"}, {"measurement": "TGI", "setting": "[34]", "value": "> 100", "unit": "µM"}, {"measurement": "TGI", "setting": "[35]", "value": "> 100", "unit": "µM"}, {"measurement": "TGI", "setting": "[36]", "value": "> 100", "unit": "µM"}, {"measurement": "TGI", "setting": "[37]", "value": "> 100", "unit": "µM"}, {"measurement": "TGI", "setting": "[38]", "value": "> 100", "unit": "µM"}, {"measurement": "TGI", "setting": "[39]", "value": 98.6, "unit": "µM"}, {"measurement": "TGI", "setting": "[40]", "value": "> 100", "unit": "µM"}, {"measurement": "TGI", "setting": "[41]", "value": "> 100", "unit": "µM"}, {"measurement": "TGI", "setting": "[42]", "value": "> 100", "unit": "µM"}, {"measurement": "TGI", "setting": "[43]", "value": 53.6, "unit": "µM"}, {"measurement": "TGI", "setting": "[44]", "value": "> 100", "unit": "µM"}]}, {"smiles": "CCOC(=O)C1(C(=O)OCC)CCC(C(OC)OC)C(CC(=O)OC)C1", "note": "(configuration not stated)", "values": [{"measurement": "TGI", "setting": "[4]", "value": "> 10", "unit": "µM"}, {"measurement": "TGI", "setting": "[5]", "value": "> 10", "unit": "µM"}, {"measurement": "TGI", "setting": "[6]", "value": "> 10", "unit": "µM"}, {"measurement": "TGI", "setting": "[8]", "value": "> 10", "unit": "µM"}, {"measurement": "TGI", "setting": "[9]", "value": "> 10", "unit": "µM"}, {"measurement": "TGI", "setting": "[10]", "value": "> 10", "unit": "µM"}, {"measurement": "TGI", "setting": "[11]", "value": "> 10", "unit": "µM"}, {"measurement": "TGI", "setting": "[12]", "value": "> 10", "unit": "µM"}, {"measurement": "TGI", "setting": "[15]", "value": "> 10", "unit": "µM"}, {"measurement": "TGI", "setting": "[16]", "value": "> 10", "unit": "µM"}, {"measurement": "TGI", "setting": "[18]", "value": "> 10", "unit": "µM"}, {"measurement": "TGI", "setting": "[20]", "value": "> 10", "unit": "µM"}, {"measurement": "TGI", "setting": "[21]", "value": "> 10", "unit": "µM"}, {"measurement": "TGI", "setting": "[45]", "value": "> 10", "unit": "µM"}, {"measurement": "TGI", "setting": "[24]", "value": "> 10", "unit": "µM"}, {"measurement": "TGI", "setting": "[25]", "value": "> 10", "unit": "µM"}, {"measurement": "TGI", "setting": "[28]", "value": "> 10", "unit": "µM"}, {"measurement": "TGI", "setting": "[30]", "value": "> 10", "unit": "µM"}, {"measurement": "TGI", "setting": "[46]", "value": "> 10", "unit": "µM"}, {"measurement": "TGI", "setting": "[32]", "value": "> 10", "unit": "µM"}, {"measurement": "TGI", "setting": "[33]", "value": "> 10", "unit": "µM"}, {"measurement": "TGI", "setting": "[47]", "value": "> 10", "unit": "µM"}, {"measurement": "TGI", "setting": "[35]", "value": "> 10", "unit": "µM"}, {"measurement": "TGI", "setting": "[48]", "value": "> 10", "unit": "µM"}, {"measurement": "TGI", "setting": "[49]", "value": "> 10", "unit": "µM"}, {"measurement": "TGI", "setting": "[50]", "value": "> 10", "unit": "µM"}, {"measurement": "TGI", "setting": "[36]", "value": "> 10", "unit": "µM"}, {"measurement": "TGI", "setting": "[38]", "value": "> 10", "unit": "µM"}, {"measurement": "TGI", "setting": "[39]", "value": "> 10", "unit": "µM"}, {"measurement": "TGI", "setting": "[41]", "value": "> 10", "unit": "µM"}, {"measurement": "TGI", "setting": "[42]", "value": "> 10", "unit": "µM"}, {"measurement": "TGI", "setting": "[51]", "value": "> 10", "unit": "µM"}, {"measurement": "TGI", "setting": "[43]", "value": "> 10", "unit": "µM"}]}]}
